Data as given in patent US7919508B2, “3-piperidinylisochroman-5-ols as dopamine agonists” (Aventis Pharmaceuticals Inc., priority 2004, dated 2011).
Structures can show the parent of a compound that is named as a salt.

Tests used:
[1] = biological target: T1, human dopamine D1 receptor (Homo sapiens, UniProt P21728); assay: [3H]-SCH-23390 binding to cloned human dopamine D1 receptors (CHO cell membranes); settings: competitive binding, [3H]-SCH-23390, cloned human D1 in CHO membranes; read-out: D1 affinity Ki
T1 construct: A 1.4 Kb Hind III to Xho I fragment was subcloned into the vector pMMLV; expressed in transfected cells; host or cells: CHO cells, clone CHO-D1M#9 (plasmid pHD1MMLV), membranes
T1 sequence (P21728 whole entry, the tested form may be a part): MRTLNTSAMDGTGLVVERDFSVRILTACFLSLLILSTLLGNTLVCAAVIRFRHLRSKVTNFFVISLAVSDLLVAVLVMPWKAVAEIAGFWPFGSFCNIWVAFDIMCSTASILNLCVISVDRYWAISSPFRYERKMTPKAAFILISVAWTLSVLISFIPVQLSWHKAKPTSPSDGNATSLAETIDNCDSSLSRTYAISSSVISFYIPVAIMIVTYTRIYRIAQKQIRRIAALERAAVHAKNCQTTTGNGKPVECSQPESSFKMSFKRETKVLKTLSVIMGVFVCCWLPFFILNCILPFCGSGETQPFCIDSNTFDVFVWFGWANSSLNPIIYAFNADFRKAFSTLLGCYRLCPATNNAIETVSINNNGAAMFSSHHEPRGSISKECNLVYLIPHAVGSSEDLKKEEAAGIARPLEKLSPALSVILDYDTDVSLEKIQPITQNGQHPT

D1 receptor = biological target: T2, D1 receptor (Homo sapiens, UniProt P21728); assay: D1 Activation Adenylyl Cyclase Assay (cAMP FlashPlate, D1 transfected CHO cell line); assay type: cell-based; settings: agonist activity at the D1 receptor, adenylate cyclase assay, D1 transfected CHO cell line; read-out: D1 EC50
T2 construct: expressed in transfected cells; host or cells: D1 transfected CHO cell line
T2 sequence (P21728 whole entry): as the sequence (P21728 whole entry, the tested form may be a part) above
Procedure: D1 Activation Adenylyl Cyclase Assay
Purpose: To measure D1-agonist activity compounds using an Adenylyl Cyclase Activation Flash Plate Assay from NEN.
Buffers: Activation and Detection buffers are provided from NEN: Catalog # SMP004A.
Maintenance of D1 transfected CHO cell line: • 1. Cells are grown in a 150 cc flask in an incubator at 37° C. with 5% CO2 for 2-3 days (4 maximum) until confluent. • 2. Aspirate off old media (Cells adhere to the plastic flask), wash 2× with sterile PBS. • 3. Add ˜5 mL of Trypsin EDTA (enough to cover bottom of the flask) for 5 min. at RT. • 4. Stop digestion with 15 mL of Media (Ham's F12 plus 10% FBS, 1% P/S, 400 μg/mL G418). • Bang flask on counter to release them from the flask. • 5. Add 2 mL of this to 30 mL of Media in a fresh flask. Return to incubator. Preparation of Cells for Assay: • 1. Loosen the cells with 5 mL Vercine (EDTA)/flask for 10 minutes in incubator. • 2. Add 20 mL of Serum-free media/flask. Transfer to 50-mL Falcon tube. • 3. Spin down cells at 1000 RPM for 5 minutes at 4° C. • 4. Aspirate off old media and resuspend in 5 mL of Serum-free media/plate to be done. • 5. Dilute 10 μL 1/10 in 90 μL Trypan Blue solution and count with a hemocytometer. • Count (live cells only) all four areas and average them. • Count X 10^5 equals cells/mL (including accounting for dilution in Trypan). • 6. Dilute to 50,000 cells/50 μL (1,000,000 cells/mL) in Serum-free media. • 7. Put 50 μL/well in Rows 3-12 of a cAMP FlashPlate. • 8. Put in incubator at 37° C. for 2-4 hours, to allow cells to recover and attach. Adenylyl Cyclase Activation Assay: • 1. Prepare the cAMP standards: • Add 130 μL/well of stimulation buffer to each row of a separate 96-well “standard” plate, 2 columns/plate. • Dilute stock cAMP standard 1/5 with stimulation buffer (final concentration is 1000 pmol/mL). Add 130 μL of this to row A. • Make 1/2 serial dilutions by adding 130 μL from each well to the next (A-G), mixing between each. • Final concentrations are: • A: 500, B: 250, C: 125, D: 62.5, E: 31.25, F: 15.6, G: 7.8, H: 0 pmol/mL. • Place 100 μL from each row from 2 columns of the standard plate into columns 1 and 2 of each “reaction” plate. • 2. Prepare the negative and positive control in the “reaction” plate: • Column 3, rows A-D, add 100 μL stimulation buffer (negative control). • Column 3, rows E-H, add 90 μL of stimulation buffer plus 10 μL of 200 μM APO (positive control, […]). (10 μL 10 mM APO, plus 490 μL stim. buffer=1/50 dilution.) • 3. Prepare the agonist compound dilutions in the “compound” plate: • Add 80 μL of stimulation buffer to row A (One column for each compound), and 90 μL of stimulation buffer to rows B—H. • Add 20 μL of 10 mM of each compound to appropriate row A. • Make 1/10 serial dilutions by adding 10 μL from each well to the next (A-H), mixing between each. • 4. […]. Prepare Detection/Stop buffer by adding 90 μL/plate of cAMP-^125I to 10 mL/plate plus 6 mL (for dead volume) of detection buffer. Steps 6-8 performed with the Multi-Mek. • 6. Add 50 μL to each well of the FlashPlate with CHO cells set up earlier. • 7. Incubate at RT for 8 minutes. • 8. Stop reaction by adding 100 μL of detection/stop buffer to each well. • 9. Cover with plastic film and incubate at RT for 16-24 hours (don't wait more than 24 hours). • 10. Count in a Packard Top-Count. Calculations: • 1. Raw signals generated by cAMP standard wells, without cells, are averaged at each cAMP concentration and converted to % B/Bo by dividing the raw signal at each cAMP concentration by the raw signal with no cAMP added. • 2. These values are used to generate a standard curve by plotting cAMP concentration versus % B/Bo. • 3. Raw data for each compound at each concentration is also converted to % B/B. by the same method. • 4. These values are then converted to pmol cAMP/mL using the standard curve. • 5. These cAMP values are then averaged across the three replicates for each compound concentration. • 6. […]

[2] = biological target: human dopamine D2Long (D2L) receptors (Homo sapiens, UniProt P14416)
Chain of human dopamine D2Long (D2L) receptors (P14416 whole entry): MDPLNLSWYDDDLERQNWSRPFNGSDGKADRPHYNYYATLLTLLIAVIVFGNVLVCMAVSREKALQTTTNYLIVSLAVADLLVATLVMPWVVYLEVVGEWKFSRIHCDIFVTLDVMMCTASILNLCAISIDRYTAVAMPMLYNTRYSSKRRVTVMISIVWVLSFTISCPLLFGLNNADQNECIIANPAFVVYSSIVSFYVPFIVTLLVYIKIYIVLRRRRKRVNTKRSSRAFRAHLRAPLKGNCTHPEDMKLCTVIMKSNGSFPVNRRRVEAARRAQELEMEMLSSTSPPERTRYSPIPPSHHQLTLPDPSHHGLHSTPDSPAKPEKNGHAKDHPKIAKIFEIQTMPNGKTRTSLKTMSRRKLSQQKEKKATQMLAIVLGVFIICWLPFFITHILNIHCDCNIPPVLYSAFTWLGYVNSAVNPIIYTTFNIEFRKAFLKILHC
Procedure: [N-Methyl-^3H]Spiroperidol Binding to Cloned Human Dopamine D2Long Receptors
This assay measures the in vitro activity of drugs on cloned human dopamine D2Long (D2L) receptors and predicts the direct dopamine-displacing properties of neuropsychiatric, cardiovascular and renal agents at human dopamine D2 receptors.
Cells were maintained in Ham's F12+10% Fetal Bovine Serum+Penicillin/Streptomycin (100 U/ml/100 μg/ml)+G418 (400 μg/ml) medium and were split using Trypsin-EDTA (1 ml/plate, room temperature for ˜2 min. or until cells have lifted off plates). • 2. […] Plates are incubated at 37° C.+5% CO2 for ˜3 days or until cells were confluent.
Cells are harvested by mechanical scraping, washed using PBS collected in 250 ml Corning polypropylene centrifuge tubes, spun down and resuspended in dH2O (final volume per harvest approximately 60 ml). Protein determination is made according to the method of Lowry (Biorad DC Assay Kit). Following the determination of the protein concentration, the protein is diluted into distilled water with 10% DMSO to the appropriate volume based on expression levels (Bmax). The concentrated protein is aliquoted into 1.5 ml screw top eppendorf tubes and placed into a −80° C. freezer.
Assay Requirement: 1 cryovial per two 96 well plates
0.5M Tris Wash Buffer, pH 7.7 • a) 44.4 g Tris HCl • 26.5 g Tris Base • q.s. to 1 Liter (0.5 M Tris buffer, pH 7.7 at 37° C.) • b) make a 1:10 dilution in distilled H2O (0.05 M. Tris buffer, pH 7.7) • 2. Tris Buffer containing physiological salts • a) Stock buffer • NaCl 7.014 g • KCl 0.372 g • CaCl2 0.222 g • MgCl2 0.204 g • q.s. To 100 ml with 0.5 M. Tris Buffer • b) Dilute 1:10 in distilled H2O • This yields 0.05 M. Tris HCl, pH 7.7, containing NaCl (120 mM), KCl (5 mM), CaCl2 (2 mM) and MgCl2 (1 mM) • Optional: add 0.1% ascorbic acid and check pH (in assays with compounds that may oxidize. • c) 1.0% polyethyleneimine stock in 0.5M Tris (reagent 1.a) • Dilute 1:10 in distilled H2O Binding Assay • 750 μl Tissue • 150 μl [^3H]NMSP • 100 μl vehicle (for total binding) or 30 μM (−)
eticlopride (for nonspecific binding) or appropriate drug concentration.
The 96-Well Packard Unifilters GF/B are incubated for >1 h at 25° C. in 0.1% polyethylenimine. The cold tissue is added last and mixed on a orbital shaker for a few seconds and is then incubated at 37° C. for 30 min in a shaking water bath. The assay is stopped by rapid filtration through Packard Unifilter plates. The filter membranes are then washed with 15 ml of ice-cold 0.05 M Tris buffer. The filters are then dried (˜15 min. under a heat lamp or incubated for 15 min. in a 60° C. oven) and a bottom seal is applied. Then 40 μl of Packard Microscint 20 scintillation cocktail are added and a permanent topseal (Type P) is applied and heat sealed. The plates are placed in a Packard Topcount.
Specific binding is defined as the difference between total binding and the binding in the presence of 3 μM S-(−)-eticlopride. Total binding is approximately 10% of the total added ligand. […] The percent inhibition at each drug concentration is the mean of duplicate determinations.

Ki [1] [nM]	EC50 (D1 receptor) [nM]	Ki [2] [nM]	SMILES
128	30	361	Cc1ccc2c(c1O)C[C@@H](C1CCN(CCC(C)NC(=O)c3ccc(Cl)cc3)CC1)O[C@H]2CN (stereo partly drawn) [Example 13, N-{3-[4-((1R,3S)-1-Aminomethyl-5-hydroxy-6-methyl-isochroman-3-yl)-piperidin-1-yl]-1-methyl-propyl}-4-chloro-benzamide dihydrochloride]
149	56	379	Cc1ccc2c(c1O)C[C@@H](C1CCN(CCC(C)NC(=O)c3ccc(C(F)(F)F)cc3)CC1)O[C@H]2CN (stereo partly drawn) [Example 16, N-{3-[4-((1R,3S)-1-Aminomethyl-5-hydroxy-6-methyl-isochroman-3-yl)-piperidin-1-yl]-1-methyl-propyl}-4-trifluoromethyl-benzamide dihydrochloride]
138	18	≥ 100000	Cc1ccc2c(c1O)C[C@@H](C1CCN(CCC(C)NC(=O)c3ccc(Cl)cc3Cl)CC1)O[C@H]2CN (stereo partly drawn) [Example 17, N-{3-[4-((1R,3S)-1-Aminomethyl-5-hydroxy-6-methyl-isochroman-3-yl)-piperidin-1-yl]-1-methyl-propyl}-2,4-dichloro-benzamide dihydrochloride]
158	6.1	310	Cc1ccc2c(c1O)C[C@@H](C1CCN(CCC(C)NC(=O)c3ccc4ccccc4c3)CC1)O[C@H]2CN (stereo partly drawn) [Example 19, Naphthalene-2-carboxylic acid {3-[4-((1R,3S)-1-aminomethyl-5-hydroxy-6-methyl-isochroman-3-yl)-piperidin-1-yl]-1-methyl-propyl}-amide dihydrochloride]
52.4	61	265	Cc1ccc2c(c1O)C[C@@H](C1CCN(CCC(C)NC(=O)c3cc4ccccc4s3)CC1)O[C@H]2CN (stereo partly drawn) [Example 20, Benzo[b]thiophene-2-carboxylic acid {3-[4-((1R,3S)-1-aminomethyl-5-hydroxy-6-methyl-isochroman-3-yl)-piperidin-1-yl]-1-methyl-propyl}-amide dihydrochloride]
120	14	≥ 100000	Cc1ccc2c(c1O)C[C@@H](C1CCN(CCC(C)NC(=O)c3ccccc3)CC1)O[C@H]2CN (stereo partly drawn) [Example 21, N-{3-[4-((1R,3S)-1-Aminomethyl-5-hydroxy-6-methyl-isochroman-3-yl)-piperidin-1-yl]-1-methyl-propyl}-benzamide dihydrochloride]
114	24	564	Cc1ccc2c(c1O)C[C@@H](C1CCN(CCC(C)NC(=O)c3ccc(F)cc3)CC1)O[C@H]2CN (stereo partly drawn) [Example 22, N-{3-[4-((1R,3S)-1-Aminomethyl-5-hydroxy-6-methyl-isochroman-3-yl)-piperidin-1-yl]-1-methyl-propyl}-4-fluoro-benzamide dihydrochloride]
56.1	54	218	Cc1ccc2c(c1O)C[C@@H](C1CCN(CCC(C)NC(=O)c3cccs3)CC1)O[C@H]2CN (stereo partly drawn) [Example 25, Thiophene-2-carboxylic acid {3-[4-((1R,3S)-1-aminomethyl-5-hydroxy-6-methyl-isochroman-3-yl)-piperidin-1-yl]-1-methyl-propyl}-amide dihydrochloride]
33	11	≥ 10000	Cc1ccc2c(c1O)C[C@@H](C1CCN(Cc3ccc(F)cc3)CC1)O[C@H]2CN [Example 26, (1R,3S)-1-Aminomethyl-3-[1-(4-fluoro-benzyl)-piperidin-4-yl]-6-methyl-isochroman-5-ol dihydrobromide]
82	131	180	Cc1ccc2c(c1O)C[C@@H](C1CCN(CC(c3ccccc3)c3ccccc3)CC1)O[C@H]2CN [Example 28, (1R,3S)-1-Aminomethyl-3-[1-(2,2-diphenyl-ethyl)-piperidin-4-yl]-6-methyl-isochroman-5-ol dihydrobromide]
64	40	≥ 10000	Cc1ccc2c(c1O)C[C@@H](C1CCN(CC(C)c3ccccc3)CC1)O[C@H]2CN (stereo partly drawn) [Example 29, (1R,3S)-1-Aminomethyl-3-[1-(2-phenyl-propyl)-piperidin-4-yl]-6-methyl-isochroman-5-ol dihydrobromide]
55.2	60	≥ 10000	Cc1ccc2c(c1O)C[C@@H](C1CCN(C(C)Cc3ccccc3)CC1)O[C@H]2CN (stereo partly drawn) [Example 30, (1R,3S)-1-Aminomethyl-6-methyl-3-[1-(1-methyl-2-phenyl-ethyl)-piperidin-4-yl]-isochroman-5-ol dihydrobromide]
12	13	575	COc1cccc(CN2CCC([C@@H]3Cc4c(ccc(C)c4O)[C@H](CN)O3)CC2)c1 [Example 31, (1R,3S)-1-Aminomethyl-3-[1-(3-methoxy-benzyl)-piperidin-4-yl]-6-methyl-isochroman-5-ol dihydrochloride]
22	12	127	Cc1ccc2c(c1O)C[C@@H](C1CCN(C3Cc4ccccc4C3)CC1)O[C@H]2CN [Example 32, (1R,3S)-1-Aminomethyl-3-(1-indan-2-yl-piperidin-4-yl)-6-methyl-isochroman-5-ol dihydrobromide]
70	13	≥ 10000	CCCCN1CCC([C@@H]2Cc3c(ccc(C)c3O)[C@H](CN)O2)CC1 [Example 33, (1R,3S)-1-Aminomethyl-3-(1-butyl-piperidin-4-yl)-6-methyl-isochroman-5-ol dihydrochloride]
47	66	≥ 10000	Cc1ccc2c(c1O)C[C@@H](C1CCN(CC3CCCCC3)CC1)O[C@H]2CN [Example 34, (1R,3S)-1-Aminomethyl-3-(1-cyclohexylmethyl-piperidin-4-yl)-6-methyl-isochroman-5-ol dihydrochloride]
42	44	96	Cc1ccc2c(c1O)C[C@@H](C1CCN(Cc3ccccc3Cl)CC1)O[C@H]2CN [Example 35, (1R,3S)-1-Aminomethyl-3-[1-(2-chloro-benzyl)-piperidin-4-yl]-6-methyl-isochroman-5-ol dihydrobromide]
	≥ 10000	181	Cc1ccc2c(c1O)C[C@@H](C1CCN(Cc3ccccc3)CC1)O[C@H]2CN1CCCC1 [Example 178, (1R,3S)-3-(1-Benzyl-piperidin-4-yl)-6-methyl-1-pyrrolidin-1-ylmethyl-isochroman-5-ol]
